Test results taken from the SangsterLogP compilation.

Assay: method code SF-AS, from DOI: 10.1248/cpb.22.2064
Details: pH 7.4

SMILES: Cc1c(N(C)C)c(=O)n(C2CCCCC2)c(=O)n1C
- logD: 3.02

SMILES: Cc1c(N(C)C)c(=O)[nH]c(=O)n1C1CCCCC1
- logD: 2.53

SMILES: Cc1c(N2CCCCC2)c(=O)n(-c2ccccc2)c(=O)n1-c1ccccc1
- logD: 3.24

SMILES: Cc1c(N2CCCCC2)c(=O)n(C)c(=O)n1-c1ccccc1
- logD: 3.21

SMILES: Cc1c(N2CCOCC2)c(=O)n(-c2ccccc2)c(=O)n1-c1ccccc1
- logD: 1.44

SMILES: Cc1c(N2CCOCC2)c(=O)n(-c2ccccc2)c(=O)n1C1CCCCC1
- logD: 2.37

SMILES: Cc1c(N2CCCC2)c(=O)n(C)c(=O)n1C1CCCCC1
- logD: 3.55

SMILES: Cc1c(N(C)C)c(=O)n(Cc2ccccc2)c(=O)n1C
- logD: 2.47

SMILES: Cc1c(N(C)C)c(=O)n(C2CCCC2)c(=O)n1C
- logD: 2.65

SMILES: Cc1c(N(C)C)c(=O)n(C)c(=O)n1C1CCCCC1
- logD: 2.94

SMILES: Cc1c(NCC(C)C)c(=O)n(-c2ccccc2)c(=O)n1-c1ccccc1
- logD: 2.4

SMILES: Cc1c(NCC(C)C)c(=O)n(-c2ccccc2)c(=O)n1C1CCCCC1
- logD: 3.27

SMILES: Cc1c(N2CCCC2)c(=O)n(C)c(=O)n1-c1ccccc1
- logD: 2.68

SMILES: Cc1c(N2CCCCC2)c(=O)n(C)c(=O)n1C1CCCCC1
- logD: 3.68
